Data from paper PMC6509195 (mBio, 2019).
One block for each molecule: values may come before it.

Key:
CsiD (PP_2909) [1] = target: T1, CsiD (PP_2909) (Pseudomonas putida, UniProt Q88IU0); assay: LC-TOF detection of L-2HG; assay type: biochemical; conditions: 2-oxoacid co-substrate in place of 2KG; glutarate, FeSO4, HEPES pH 7, 22°C
T1 construct: gene glaH
T1 sequence (Q88IU0 1-325): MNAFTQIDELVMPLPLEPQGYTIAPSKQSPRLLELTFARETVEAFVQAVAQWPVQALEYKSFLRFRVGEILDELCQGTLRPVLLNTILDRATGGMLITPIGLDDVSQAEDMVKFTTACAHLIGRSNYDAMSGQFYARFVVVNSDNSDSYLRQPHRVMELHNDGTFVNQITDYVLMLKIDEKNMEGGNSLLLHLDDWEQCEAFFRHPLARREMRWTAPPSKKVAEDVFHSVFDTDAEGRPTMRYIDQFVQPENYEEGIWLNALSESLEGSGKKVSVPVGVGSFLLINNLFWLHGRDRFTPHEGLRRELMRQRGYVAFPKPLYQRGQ

[2] = target: T2, CsiD homolog from E. coli (Escherichia coli, UniProt P76621); assay: LC-TOF detection of L-2HG; assay type: biochemical; conditions: 2-oxoacid co-substrate in place of 2KG; glutarate, FeSO4, HEPES pH 7, 22°C
T2 construct: gene glaH
T2 sequence (P76621 1-325): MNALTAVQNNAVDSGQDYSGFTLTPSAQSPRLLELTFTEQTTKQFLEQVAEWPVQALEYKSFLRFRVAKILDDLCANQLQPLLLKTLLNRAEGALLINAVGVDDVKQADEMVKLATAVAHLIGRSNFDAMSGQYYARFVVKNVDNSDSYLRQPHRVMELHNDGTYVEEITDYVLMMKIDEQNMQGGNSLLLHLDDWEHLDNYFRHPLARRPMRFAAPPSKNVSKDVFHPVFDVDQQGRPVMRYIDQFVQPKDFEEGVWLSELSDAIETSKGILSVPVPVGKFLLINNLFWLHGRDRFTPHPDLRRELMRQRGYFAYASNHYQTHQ

PP_4108 = target: T3, PP_4108 (Pseudomonas putida, UniProt Q88FI7); assay: colorimetric glutamate assay of transamination; assay type: biochemical; conditions: 2KG as amino acceptor, PLP, 50 mM HEPES pH 7.5, 30°C, 16 h
T3 sequence (Q88FI7 1-416): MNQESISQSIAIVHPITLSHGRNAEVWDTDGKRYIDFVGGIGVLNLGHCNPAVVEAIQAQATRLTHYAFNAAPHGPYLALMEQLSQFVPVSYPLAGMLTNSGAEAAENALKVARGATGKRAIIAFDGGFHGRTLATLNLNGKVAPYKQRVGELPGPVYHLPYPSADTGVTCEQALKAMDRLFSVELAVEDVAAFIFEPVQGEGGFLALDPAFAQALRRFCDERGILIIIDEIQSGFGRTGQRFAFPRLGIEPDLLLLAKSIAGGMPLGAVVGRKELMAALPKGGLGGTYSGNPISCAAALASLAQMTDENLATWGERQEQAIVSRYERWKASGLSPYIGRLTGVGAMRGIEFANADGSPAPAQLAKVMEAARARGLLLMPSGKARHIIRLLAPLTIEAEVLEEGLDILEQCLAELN

[3] = target: T2, CsiD homolog from E. coli; assay: LC-TOF product analysis; assay type: biochemical; conditions: 2KG co-substrate, FeSO4, HEPES pH 7, 22°C
CsiD (PP_2909) [4] = target: T1, CsiD (PP_2909); assay: LC-TOF / HPLC product analysis; assay type: biochemical; conditions: 2KG co-substrate, 25 μM FeSO4, ascorbate, DTT, 50 mM HEPES pH 7, 22°C, 3 h
purified protein = substrate: O=C(O)CCCC(=O)C(=O)O; assay: purified protein; assay type: biochemical, Pseudomonas putida; conditions: 100 mM Tris-HCl pH 7, 10 mM MgCl2, 50 μM FeCl2, Fe(II)-dependent

Molecule: O=C(O)CCCC(=O)C(=O)O [2-oxoadipate]
- LC-TOF detection of L-2HG (CsiD (PP_2909) [1]): all three CsiD homologs could utilize both 2OA and 2KG, but not oxaloacetate
- LC-TOF detection of L-2HG [2]: all three CsiD homologs could utilize both 2OA and 2KG, but not oxaloacetate

- relative activity (PP_4108): The enzyme was most active on L-2AA
Molecule: N[C@@H](CCCC(=O)O)C(=O)O [L-2-aminoadipate]

Molecule: O=C(O)CCCC(=O)O [glutarate]
- LC-TOF product analysis [3]: found that only glutarate served as a hydroxylation substrate
- LC-TOF / HPLC product analysis (CsiD (PP_2909) [4]): purified csiD and confirmed that it hydroxylated glutarate in a 2KG-dependent manner

B1: PP_5260 (Pseudomonas putida KT2440) (protein)
chain: MPANDFVSPDSIRAQFSAAMSLMYKQEVPLYGTLLELVSEINQQVMAQQPEVAEALRWTGEIERLDQERHGAIRVGTAEELATIARLFAVMGMQPVGYYDLSSAGVPVHSTAFRAVHEQSLHVSPFRVFTSLLRLELIDNPQLRELAQSILAKRQIFTSRALELIAQCEREGGLDAADAETFVQEALHTFRWHQDATVTAEQYQQLHDQHRLIADVVAFKGPHINHLTPRTLDIDAIQLGMPAKGIPPKAVVEGPPTRRHPILLRQTSFKALQETVAFRDQQGREGSHTARFGEIEQRGAALTPKGRQLYDKLLDATRVALGGAPAEANAERYMALLQANFAEFPDDLAQMREQGLAYFRYFATEKGLAARDQEGRPTTLQGLIDAGHVHFEALVYEDFLPVSAAGIFQSNLGDDAQAEYGSNANREAFEAALGLQVQDELALYAQSERRSLQACAQALNLGSM
- Km (purified protein): 0.06 (± 0.03) mM
